From US7402698B2, “Secondary amino-and cycloamino-cycloalkanol derivatives and methods of their use” (Wyeth, priority 2003, dated 2008) come the findings set out here.

Structures can show the parent of a compound that is named as a salt.

The target of one assay is T1, human hNET (Homo sapiens, UniProt P23975).
T1 construct: expressed in transfected cells; host or cells: MDCK-Net6 (MDCK cells stably transfected with hNET)
T1 sequence (P23975 whole entry): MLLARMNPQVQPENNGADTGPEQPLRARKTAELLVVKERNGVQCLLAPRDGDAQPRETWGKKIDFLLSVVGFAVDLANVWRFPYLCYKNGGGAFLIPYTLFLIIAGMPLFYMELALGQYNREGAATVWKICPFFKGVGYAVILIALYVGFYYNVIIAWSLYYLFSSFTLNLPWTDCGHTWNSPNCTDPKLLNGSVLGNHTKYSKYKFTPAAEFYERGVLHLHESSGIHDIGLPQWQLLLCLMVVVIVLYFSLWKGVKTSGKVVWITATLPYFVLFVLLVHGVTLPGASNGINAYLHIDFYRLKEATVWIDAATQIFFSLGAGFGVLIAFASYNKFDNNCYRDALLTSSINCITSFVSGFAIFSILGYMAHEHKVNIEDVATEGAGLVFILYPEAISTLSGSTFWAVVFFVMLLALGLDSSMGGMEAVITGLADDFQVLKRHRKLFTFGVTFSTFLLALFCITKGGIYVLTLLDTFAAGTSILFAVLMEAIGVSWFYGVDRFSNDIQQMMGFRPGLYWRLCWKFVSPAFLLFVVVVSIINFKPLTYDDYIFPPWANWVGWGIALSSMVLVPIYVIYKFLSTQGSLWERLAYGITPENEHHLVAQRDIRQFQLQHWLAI
As to the kind of experiment: Norepinephrine (NE) uptake assay in MDCK-Net6 cells. The assay is classed as cell-based. The note with it: 30 μM test compound (stated in cell), [3H]NE uptake.
What is called inhibition is the percentage by which the read-out fell short of the control. Higher therefore signals a response far below the control. With `OC1(C(CN2CCOCC2)c2cccc(Br)c2)CCC1` (stereo not drawn) [Example 95, 1-[1-(3-bromophenyl)-2-morpholin-4-ylethyl]cyclobutanol hydrochloride], the inhibition at 30 µM was determined as 67%.

On to `OC1(C(CNCc2ccc(F)cc2)c2cccc(Br)c2)CCCCC1` (stereo not drawn) [Example 98, 1-{1-(3-bromophenyl)-2-[(4-fluorobenzyl)amino]ethyl}cyclohexanol hydrochloride], for which at 30 µM the inhibition was 69%.

Turning to `OC1(C(CN2CCOCC2)c2cccc(Br)c2)CCCCC1` (stereo not drawn) [Example 99, 1-[1-(3-bromophenyl)-2-morpholin-4-ylethyl]cyclohexanol hydrochloride], the inhibition at 30 µM was determined as 55%.

The molecule `OC1(C(CNCc2ccc(C(F)(F)F)cc2)c2cccc(Cl)c2)CCCCC1` (stereo not drawn) [Example 105, 1-(1-(3-chlorophenyl)-2-{[4-(trifluoromethyl)benzyl]amino}ethyl)cyclohexanol hydrochloride] registered an inhibition at 30 µM of 99%.

Regarding `OC1(C(CN2CCOCC2)c2ccc(Cl)c(Cl)c2)CCCCC1` (stereo not drawn) [Example 112, 1-[1-(3,4-dichlorophenyl)-2-morpholin-4-ylethyl]cyclohexanol hydrochloride], the inhibition at 30 µM came to 80%.

With `OC1(C(CNCc2ccc(F)cc2)c2ccc3ccccc3c2)CCCCC1` (stereo not drawn) [Example 113, 1-[2-[(4-fluorobenzyl)amino]-1-(2-naphthyl)ethyl]cyclohexanol hydrochloride], the inhibition at 30 µM was 55%.

A further assay has as its target T1, human hNET. Described as above. The class given is cell-based. The following applies: 1 μM test compound, [3H]NE uptake. The protocol: MDCK-Net6 cells, stably transfected with human hNET (Pacholczyk, T., R. D. Blakely, and S. G. Amara, Nature, 1991, 350(6316): p. 350-4) were cultured in growth medium containing high glucose DMEM (Gibco, Cat. No. 11995), 10% FBS (dialyzed, heat-inactivated, US Bio-Technologies, Lot FBD1129HI) and 500 μg/ml G418 (Gibco, Cat. No. 10131). Cells were plated at 300,000/T75 flask and cells were split twice weekly. The JAR cell line (human placental choriocarcinoma) was purchased from ATCC (Cat. No. HTB-144). The cells were cultured in growth medium containing RPMI 1640 (Gibco, Cat. No. 72400), 10% FBS (Irvine, Cat. No. 3000), 1% sodium pyruvate (Gibco, Cat. No. 1136) and 0.25% glucose. Cells were plated at 250,000 cells/T75 flask and split twice weekly. For all assays, cells were plated in Wallac 96-well sterile plates (PerkinEimer, Cat. No. 3983498).
On day 1, cells were plated at 3,000 cells/well in growth medium and maintained in a cell incubator (37° C., 5% CO2). On day 2, growth medium was replaced with 200 μl of assay buffer (25 mM HEPES; 120 mM NaCl; 5 mM KCl; 2.5 mM CaCl2; 1.2 mM MgSO4; 2 mg/ml glucose (pH 7.4, 37° C.)) containing 0.2 mg/ml ascorbic acid and 10 μM pargyline. Plates containing cells with 200 μl of assay buffer were equilibrated for 10 minutes at 37° C. prior to addition of compounds. A stock solution of desipramine was prepared in DMSO (10 mM) and delivered to triplicate wells containing cells for a final test concentration of 1 μM. Data from these wells were used to define non-specific NE uptake (minimum NE uptake). Test compounds were prepared in DMSO (10 mM) and diluted in assay buffer according to test range (1 to 10,000 nM). Twenty-five microliters of assay buffer (maximum NE uptake) or test compound were added directly to triplicate wells containing cells in 200 μl of assay buffer. The cells in assay buffer with test compounds were incubated for 20 minutes at 37° C. To initiate the NE uptake, [^3H]NE diluted in assay buffer (120 nM final assay concentration) was delivered in 25 μl aliquots to each well and the plates were incubated for 5 minutes (37° C.). The reaction was terminated by decanting the supernatant from the plate. The plates containing cells were washed twice with 200 μl assay buffer (37° C.) to remove free radioligand. The plates were then inverted, left to dry for 2 minutes, then reinverted and air-dried for an additional 10 minutes. The cells were lysed in 25 μl of 0.25 N NaOH solution (4° C.), placed on a shake table and vigorously shaken for 5 minutes. After cell lysis, 75 μl of scintillation cocktail was added to each well and the plates were sealed with film tape. The plates were returned to the shake table and vigorously shaken for a minimum of 10 minutes to ensure adequate partitioning of organic and aqueous solutions. The plates were counted in a Wallac Microbeta counter (PerkinEimer) to collect the raw cpm data.
For each experiment, a data stream of cpm values collected from the Wallac Microbeta counter was downloaded to a Microsoft Excel statistical application program. Calculations of EC50 values were made using the transformed-both-sides logistic dose responses program written by Wyeth Biometrics Department. The statistical program uses mean cpm values from wells representing maximum binding or uptake (assay buffer) and mean cpm values from wells representing minimum binding or uptake ((1 μM desipramine (hNET) or 1 μM paroxetine (hSERT)). Estimation of the EC50 value was completed on a log scale and the line was fit between the maximum and minimum binding or uptake values. All graphic data representation was generated by normalizing each data point to a mean percent based on the maximum and minimum binding or uptake values. The EC50 values reported from multiple experiments were calculated by pooling the raw data from each experiment and analyzing the pooled data as one experiment.
The molecule `OC1(C(CN2CCNCC2)c2cccc(Cl)c2)CCCCC1` (stereo not drawn) [Example 1, 1-[1-(3-chlorophenyl)-2-piperazin-1-ylethyl]cyclohexanol dihydrochloride] returned an inhibition at 1 µM of 93%.

In the case of `OC1(C(CNCc2ccccc2)c2ccc(Cl)c(Cl)c2)CCC1` (stereo not drawn) [Example 10, 1-[2-(benzylamino)-1-(3,4-dichlorophenyl)ethyl]cyclobutanol hydrochloride], testing at 1 µM gave an inhibition of 92%.

`OC1(C(CNCc2ccccc2)c2ccc3ccccc3c2)CCC1` (stereo not drawn) [Example 12, 1-[2-(benzylamino)-1-(2-naphthyl)ethyl]cyclobutanol hydrochloride] returned an inhibition at 1 µM of 90%.

As to `CN1CCC(O)(C(CNCc2ccccc2)c2ccc(Cl)c(Cl)c2)CC1` (stereo not drawn) [Example 15, 4-[2-(benzylamino)-1-(3,4-dichlorophenyl)ethyl]-1-methylpiperidin-4-ol dihydrochloride], the inhibition at 1 µM was 89%.

In turn, `OC1(C(CNCc2cccc(Cl)c2)c2ccc3ccccc3c2)CCCCC1` (stereo not drawn) [Example 33, 1-[2-[(3-chlorobenzyl)amino]-1-(2-naphthyl)ethyl]cyclohexanol hydrochloride] registered an inhibition at 1 µM of 69%.

In the case of `OC1(C(CN2CCCC2)c2cccc(Cl)c2)CCCCC1` (stereo not drawn) [Example 34, 1-[1-(3-chlorophenyl)-2-pyrrolidin-1-ylethyl]cyclohexanol hydrochloride], testing at 1 µM gave an inhibition of 65%.

`OC1(C(CNCc2ccccc2)c2ccc(Cl)c(Cl)c2)CCCCC1` (stereo not drawn) [Example 38, 1-[2-(benzylamino)-1-(3,4-dichlorophenyl)ethyl]cyclohexanol hydrochloride]: the inhibition at 1 µM is 56%.

As to `OC1(C(CNCc2ccccc2)c2cccc(Br)c2)CCC1` (stereo not drawn) [Example 40, 1-[2-(benzylamino)-1-(3-bromophenyl)ethyl]cyclobutanol hydrochloride], at 1 µM the inhibition was 55%.

As to `OC1(C(CNCc2ccccc2)c2cccc(Cl)c2)CCCCC1` (stereo not drawn) [Example 41, 1-[2-(benzylamino)-1-(3-chlorophenyl)ethyl]cyclohexanol hydrochloride], the inhibition at 1 µM amounted to 51%.

Turning to `OC1(C(CNC2CCCCC2)c2ccc(Cl)c(Cl)c2)CCCCC1` (stereo not drawn) [Example 42, 1-[2-(cyclohexylamino)-1-(3,4-dichlorophenyl)ethyl]cyclohexanol hydrochloride], at 1 µM the inhibition was 48%.

`CN1CCC(O)(C(CNCc2ccccc2)c2cccc(Br)c2)CC1` (stereo not drawn) [Example 44, 4-[2-(benzylamino)-1-(3-bromophenyl)ethyl]-1-methylpiperidin-4-ol dihydrochloride] gave an inhibition at 1 µM of 44%.

Molecule `OC1(C(CNCc2ccc(F)cc2)c2cccc(C(F)(F)F)c2)CCCCC1` (stereo not drawn) [Example 47, 1-{2-[(4-fluorobenzyl)amino]-1-[3-(trifluoromethyl)phenyl]ethyl}cyclohexanol hydrochloride] yielded an inhibition at 1 µM of 40%.

`OC1(C(CNC2CCCCC2)c2cccc(Br)c2)CCCCC1` (stereo not drawn) [Example 48, 1-[1-(3-bromophenyl)-2-(cyclohexylamino)ethyl]cyclohexanol hydrochloride] registered an inhibition at 1 µM of 40%.

Molecule `OC1(C(CNC2CCCc3ccccc32)c2cccc(Br)c2)CCCCC1` (stereo not drawn) [Example 55, 1-[1-(3-bromophenyl)-2-(1,2,3,4-tetrahydronaphthalen-1-ylamino)ethyl]cyclohexanol hydrochloride] displayed an inhibition at 1 µM of 38%.

Take `OC1(C(CN2CCOCC2)c2cccc(Cl)c2)CCCCC1` (stereo not drawn) [Example 57, 1-[1-(3-chlorophenyl)-2-morpholin-4-ylethyl]cyclohexanol hydrochloride]: the inhibition at 1 µM is 35%.

Consider `OC1(C(CNCc2cccc(Cl)c2)c2cccc(Br)c2)CCCCC1` (stereo not drawn) [Example 60, 1-{1-(3-bromophenyl)-2-[(3-chlorobenzyl)amino]ethyl}cyclohexanol hydrochloride], for which the inhibition at 1 µM was 33%.

Turning to `OC1(C(CNCc2ccccc2)c2cccc(Br)c2)CCCCC1` (stereo not drawn) [Example 61, 1-[2-(benzylamino)-1-(3-bromophenyl)ethyl]cyclohexanol hydrochloride], the inhibition at 1 µM was 31%.

Turning to `OC1(C(CNCc2ccccc2)c2ccc3ccccc3c2)CCCCC1` (stereo not drawn) [Example 62, 1-[2-(benzylamino)-1-(2-naphthyl)ethyl]cyclohexanol hydrochloride], the inhibition at 1 µM is 30%.

Take `OC1(C(CNC2CCCCC2)c2cccc(Cl)c2)CCCCC1` (stereo not drawn) [Example 67, 1-[1-(3-chlorophenyl)-2-(cyclohexylamino)ethyl]cyclohexanol hydrochloride]: testing at 1 µM gave an inhibition of 26%.

For the molecule `OC1(C(CNCc2ccc(C(F)(F)F)cc2)c2ccc(Cl)c(Cl)c2)CCCCC1` (stereo not drawn) [Example 75, 1-(1-(3,4-dichlorophenyl)-2-{[4-(trifluoromethyl)benzyl]amino}ethyl)cyclohexanol hydrochloride], the inhibition at 1 µM was 22%.

Regarding `OC1(C(CNCc2ccc(F)cc2)c2ccc(Cl)c(Cl)c2)CCCCC1` (stereo not drawn) [Example 80, 1-{1-(3,4-dichlorophenyl)-2-[(4-fluorobenzyl)amino]ethyl}cyclohexanol hydrochloride], the inhibition at 1 µM was 20%.

Take `OC1(C(CN2CCOCC2)c2ccc(Cl)c(Cl)c2)CCC1` (stereo not drawn) [Example 83, 1-[1-(3,4-dichlorophenyl)-2-morpholin-4-ylethyl]cyclobutanol hydrochloride]: the inhibition at 1 µM was determined as 19%.

`OC1(C(CN2CCCCC2)c2cccc(Cl)c2)CCCCC1` (stereo not drawn) [Example 85, 1-[1-(3-chlorophenyl)-2-piperidin-1-ylethyl]cyclohexanol hydrochloride] showed an inhibition at 1 µM of 17%.

Consider `OC1(C(CNCc2ccc(C(F)(F)F)cc2)c2cccc(Br)c2)CCCCC1` (stereo not drawn) [Example 90, 1-(1-(3-bromophenyl)-2-{[4-(trifluoromethyl)benzyl]amino}ethyl)cyclohexanol hydrochloride], for which the inhibition at 1 µM is 15%.
